In one test the test system is L1. As to the kind of experiment: L1-EGFP vector assay in HEK293. The settings on record: HEK293 with L1-EGFP vector, 20 μM, four days. Type of test: cell-based, human. Here is the method: The reverse transcriptase inhibitors 3TC, d4T and Tenofovir disoproxil Fumarate (TDF), QA-2704, Combi-Blocks) were added to cell lines derived from human fetal kidney cells (HEK293) to a final concentration of 20 μM, and the cells were introduced with a vector (L1-EGFP, Macia et al. Genome Res 27, 335-348 (2017)) in which EGFP protein was expressed in only cells with activated L1. Four days after incubating, immunostaining was performed using antibodies against GFP and Hoechest, which stains nuclei, and images were taken using a fluorescence microscope (Leica AF600) with a 10× objective.

In a further test the target is L1 reverse transcriptase (Homo sapiens, UniProt O00370). The settings on record: Dai et al., BMC Biochemistry 2011, 12:18; cited from earlier work.
L1 reverse transcriptase, sequence (O00370 whole entry, looked up): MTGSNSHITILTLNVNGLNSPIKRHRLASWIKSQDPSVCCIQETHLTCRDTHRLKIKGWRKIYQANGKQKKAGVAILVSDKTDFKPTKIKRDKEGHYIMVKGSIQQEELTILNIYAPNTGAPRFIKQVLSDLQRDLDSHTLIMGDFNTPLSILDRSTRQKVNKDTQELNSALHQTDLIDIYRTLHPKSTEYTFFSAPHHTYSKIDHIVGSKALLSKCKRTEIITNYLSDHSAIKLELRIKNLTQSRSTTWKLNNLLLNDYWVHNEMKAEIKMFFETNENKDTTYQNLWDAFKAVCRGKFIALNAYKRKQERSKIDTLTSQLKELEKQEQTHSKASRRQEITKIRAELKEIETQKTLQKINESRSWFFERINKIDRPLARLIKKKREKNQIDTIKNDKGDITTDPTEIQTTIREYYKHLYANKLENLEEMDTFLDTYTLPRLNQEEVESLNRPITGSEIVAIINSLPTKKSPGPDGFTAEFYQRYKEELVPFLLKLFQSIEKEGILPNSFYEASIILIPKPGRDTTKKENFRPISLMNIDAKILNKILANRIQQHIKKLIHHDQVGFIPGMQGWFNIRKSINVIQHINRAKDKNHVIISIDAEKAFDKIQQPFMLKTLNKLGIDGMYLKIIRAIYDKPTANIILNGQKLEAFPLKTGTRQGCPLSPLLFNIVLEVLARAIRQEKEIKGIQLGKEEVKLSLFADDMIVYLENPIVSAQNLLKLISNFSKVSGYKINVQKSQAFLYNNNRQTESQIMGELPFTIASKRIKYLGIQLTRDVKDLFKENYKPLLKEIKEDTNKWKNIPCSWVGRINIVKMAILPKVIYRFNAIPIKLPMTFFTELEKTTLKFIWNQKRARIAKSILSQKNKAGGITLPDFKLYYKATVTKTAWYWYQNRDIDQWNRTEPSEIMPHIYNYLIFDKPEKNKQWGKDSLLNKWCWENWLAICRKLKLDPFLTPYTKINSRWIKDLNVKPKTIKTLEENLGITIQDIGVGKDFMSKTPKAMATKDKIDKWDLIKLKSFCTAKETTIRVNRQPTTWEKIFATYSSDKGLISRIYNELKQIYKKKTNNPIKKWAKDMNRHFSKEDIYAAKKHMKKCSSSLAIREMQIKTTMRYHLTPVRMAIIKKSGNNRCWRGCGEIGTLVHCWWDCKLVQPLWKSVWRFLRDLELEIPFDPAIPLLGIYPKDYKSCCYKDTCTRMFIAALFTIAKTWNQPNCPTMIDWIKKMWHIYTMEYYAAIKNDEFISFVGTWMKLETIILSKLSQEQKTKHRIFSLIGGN
For test [1], the system named is MECP2-deficient spheroids. In words: Multi-electrode array (MEA) neural network activity of spheroids. It counts as cell-based, human. The settings on record: MEA after 4 weeks, chronic treatment.
Method: Next, 3TC and d4T were added to the obtained differentiated neural cell culture. The reverse-transcriptase inhibitors for cultured cells were prepared for as follows: Lamivudine (3TC, Sigma-Aldrich) was prepared in dimethyl sulfoxide (DMSO, Sigma Aldrich) and the preparation was added to media so that the final concentration of 3TC was adjusted into 10 μM. Stavudine (d4T, Sigma-Aldrich) was suspended in water and a final concentration of 1 μM d4T was used in combination with 3TC. […] Control cells (CTRL) contained 10 pjM DMSO as a vehicle control.
The NPCs used to generate spheroids were chronically treated under their respective conditions and plated on multi-electrode array (MEA) planes to measure neural network activity. MEA plates were recorded weekly and analysis of spontaneous neural activity was performed after 4 weeks.
Multi-electrode array (MEA) was performed as follows.
Twelve-well MEA plates (Axion Biosystems) were coated with 100 μg/mL poly-L-ornithine (Sigma-Aldrich) and 5 μg/mL laminin (Life Technologies). Neurospheres generated from NPCs were placed in the center of the MEA wells and the electrodes were fully covered. Neurospheres were plated in NG media supplemented with 1% FBS. […] Media was changed twice a week and recordings were measured one day after the media was changed. […]
The test system of test [2] is MECP2-deficient neurons. As to the kind of experiment: Quantification of co-localized synaptic puncta (SYN1/PSD-95) on iPS cell-derived neurons. It counts as cell-based, human. The settings on record: vs neurons treated without reverse transcriptase inhibitors, NVP 400 nM.
Method: Specifically, differentiated nervous system cells derived from normal human iPS cells and iPS cells obtained from patients suffered from Rett syndrome (hereinafter referred to as MECP2-deficient or MECP2-KO because the MECP2 gene was inactivated) were cultured and differentiated into cortical neurons. For differentiation into neurospheres (neural stem cell clusters), NPCs were dissociated from the plate using StemPro Accutase (Life Technologies), and 3-5 million cells were then cultured in suspension on 6-well plates in a shaker incubator at 95 r.p.m. at 37° C. for 48 hours in neural culture (NG) media (DMEM/F12, 1% Glutamax (Life Technologies), 1% N2 Neuroplex (Gemini Bio-products), 2% Gem21 NeuroPlex (Gemini Bio-products), 1% penicillin-streptomycin) supplemented with bFGF (basic Fibroblast Growth Factor, R&D Systems). […]
Quantification of synaptic spots was performed as follows.
Five- to six-week-old neurons were fixed and stained for the following markers: SYN1, postsynaptic density protein 95 (PSD-95), and dendritic marker (MAP2). A fluorescence microscope (Z1 Axio Observer Apotome Zeiss) was used to image the slides by compiling Z stack images taken from changing focus distances. Co-localized SYN1 (presynaptic) and PSD-95 (postsynaptic) were quantified using the compiled Z stack image. […]
In test [3] the target is HIV reverse transcriptase (Human immunodeficiency virus type 1 group M subtype B, UniProt P04585). The settings on record: cited from earlier work.
The test system of test [4] is MECP2-deficient organoids. As to the kind of experiment: Measurement of cortical organoid diameter. Type of test: cell-based, human. The settings on record: after 56 days of differentiation.
Method: The cultured iPS cells were dissociated from the plate using a 1:1 Dulbecco's phosphate-buffered saline (DPBS, Fisher Scientific) and StemPro Accutase solution, transferred to 6-well plates, and kept in suspension. Neural induction media consisted of DMEM/F12, 1% Glutamax, 1% N2 Neuroplex, 1% non-essential amino acids (Gibco), 1% penicillin-streptomycin, 1 μM Dorsomorphin (R&D Systems), and 10 μM SB431542 (SB, Stemgent) Neural proliferation media consisted of Neurobasal media (Life Technologies), 2% Gem21 Neuroplex, 1% non-essential amino acids, 1% Glutamax, 20 ng/mL epidermal growth factor (EGF, Peprotech), and 20 ng/mL bFGF. For neuronal maturation, the cells were kept in the same media but the growth factors were withdrawn. Organoid results are combined from four separate batches of differentiation.
(§2) Next, 3TC and d4T were added to the obtained differentiated neural cell culture. The reverse-transcriptase inhibitors for cultured cells were prepared for as follows: Lamivudine (3TC, Sigma-Aldrich) was prepared in dimethyl sulfoxide (DMSO, Sigma Aldrich) and the preparation was added to media so that the final concentration of 3TC was adjusted into 10 μM. […]
Cortical organoids were imaged on an Evos FL Imagine System (ThermoFisher) at 4× magnification. The images were uploaded to Image J and the diameter of each organoid was determined by the program's length measurement function.
In test [5] the test system is MECP2-deficient neurons. In words: Morphological analysis of iPS cell-derived neurons (Neurolucida tracing, Scholl analysis). It counts as cell-based, human. The settings on record: 3TC 10 μM in combination with d4T 1 μM, NVP 400 nM.
Method: Specifically, differentiated nervous system cells derived from normal human iPS cells and iPS cells obtained from patients suffered from Rett syndrome (hereinafter referred to as MECP2-deficient or MECP2-KO because the MECP2 gene was inactivated) were cultured and differentiated into cortical neurons. […] For neuronal maturation, the cells were kept in the same media but the growth factors were withdrawn.
The differentiated nervous system cells were maintained for 8 weeks after FGF withdraw.
as §2
Cultured NPCs were transduced with a lentivirus backbone containing Synapsin 1 (SYN) promoter upstream of an EGFP reporter (Nageshappa et al., Mol Psychiatry 21, 178-188 (2016)). […] 11 (MBF Bioscience, Williston, VT) was used to quantify the morphology of the neurons and then to obtain the sum of length of all neurites and dendrites per traced neuron. […] Neuronal complexity was determined by recording the number of intersections within each ring.
Test [6] has as its system MeCP2-KO mice. As to the kind of experiment: Neurological symptom scoring in MeCP2-KO mice. It counts as in vivo. The settings on record: 2 mg/ml in drinking water starting at week 4, observed up to 10 weeks, vs vehicle. Here is the method:
Treatment with reverse transcription inhibitors was performed as follows.
(§1) MeCP2-KO mice (C57BL/6 background) were obtained from Mutant Mouse Resource & Research Centers (MMRRC) (Chen, RZ, Akbarian S, Tudor M and Jaenisch R. Nat Genet 27, 327-331 (2001)). All aspects of animal care and treatment were carried out according to the guidelines of the Experimental Animal Care Committee of Kyushu University.
Mice were maintained in a 12-hour light/dark cycle with free access to food and water. MeCP2-KO mice were divided into three groups of animals, each of which was administered with 3TC (QA-4615, Combi-blocks), d4T (d3580, Tokyo Chemical Industry Co., Ltd.) and vehicle. […]
Neurological symptoms of the mice were scored as described in Guy J, Gan J, Selfridge J, Cobb S and Bird A. Science 315, 1143-1147 (2007). In brief, the mice bred as described above were scored blind to genotype and treatment status, focusing on the six symptoms of mobility, gait, hindlimb clasping, tremor, breathing, and general condition. Each of the six symptoms was scored from 0 to 2:0 corresponds to symptom's being absent or the same as in the wild-type, 1 corresponds to symptom's being present, and 2 corresponds to severe symptom.
Six neurological symptoms scored in each of the three groups of the mice (vehicle, 15 mice; 3TC, 10 mice; d4T, 10 mice) were summed, and observed and recorded for up to 10 weeks.

Test [7] concerns MeCP2-KO mice. As to the kind of experiment: Survival of MeCP2-KO mice. The settings on record: 2 mg/ml in drinking water starting at week 4, vs vehicle. Type of test: in vivo. Here is the method: as §1
Mice were maintained in a 12-hour light/dark cycle with free access to food and water. MeCP2-KO mice were divided into three groups of animals, each of which was administered with 3TC (QA-4615, Combi-blocks), d4T (d3580, Tokyo Chemical Industry Co., Ltd.) and vehicle. The mice were orally administered with 3TC (2 mg/ml), d4T (2 mg/ml) and vehicle in drinking water, respectively, starting at week 4. As a control, the vehicle-treated MeCP2-KO mice were used. All mice were observed daily.
Next, the survival rate of the mice in each group (vehicle, 20 mice; 3TC, 13 mice; d4T, 13 mice) was examined.

Structures are written as SMILES. Entries after “also recorded” stand apart in the source; their conditions may differ. Structures can show the parent of a compound that is named as a salt.

These results are taken from patent US20240277712A1, “TREATMENT AND PREVENTION OF DEVELOPMENTAL DISORDERS AND MENTAL DISEASES” (KYUSHU UNIVERSITY, NATIONAL UNIVERSITY CORPORATION, priority 2020, published 2024).

Regarding `CC(C)OC(=O)OCOP(=O)(CO[C@H](C)Cn1cnc2c(N)ncnc21)OCOC(=O)OC(C)C` [TDF, Tenofovir disoproxil Fumarate], the “percentage of EGFP-positive cells” value in the test with L1 is reported as “decrease”.
In the case of `CC(C)Nc1cccnc1N1CCN(C(=O)c2cc3cc(NS(C)(=O)=O)ccc3[nH]2)CC1` [delavirdine], at L1 reverse transcriptase, the “inhibitory activity for L1 reverse transcriptase” value is recorded as “have an inhibitory activity”.
Take `Cc1ccnc2c1NC(=O)c1cccnc1N2C1CC1` [NVP, Nevirapine]: the “weighted mean firing rate” value in [1] was “significantly decreased”. For the same molecule, the “co-localized puncta (synapse formation)” value with MECP2-deficient neurons [2] is listed as “not seen”. For the same molecule, the “inhibitory activity for L1 reverse transcriptase” value on L1 reverse transcriptase is on record as “does not have any inhibitory activity; also recorded: not to have any L1 reverse transcriptase inhibitory activity”. Moreover, in test [3], the “inhibitory activity for HIV reverse transcriptase” value is listed as “has an HIV reverse transcriptase inhibitory activity”. Besides, in [4], the cortical organoid diameter entry is reported as “not seen”. Moreover, in the test on MECP2-deficient neurons [5], the cell body area result is “this rescue was not seen” and the “number of branch points” value was “this rescue was not seen”.
As for `Cc1cn([C@H]2C=C[C@@H](CO)O2)c(=O)[nH]c1=O` [d4T, stavudine], the “Rett symptoms (summed score of six neurological symptoms)” value in the test on MeCP2-KO mice [6] is on record as “Significant reductions”. In addition, the survival rate result in the test with MeCP2-KO mice [7] is “Significant life extensions”. For the same molecule, the “percentage of EGFP-positive cells” value with L1 was “decrease”.
Turning to `O=C1Nc2ccc(Cl)cc2[C@@](C#CC2CC2)(C(F)(F)F)O1` [efavirenz, Efavirenz], the “inhibitory activity for L1 reverse transcriptase” value at L1 reverse transcriptase was “have an inhibitory activity”.
